Test results from US20240294533A1, “2-(HET)ARYL-SUBSTITUTED CONDENSED HETEROCYCLE DERIVATIVES AS PEST CONTROL AGENTS” (Bayer Aktiengesellschaft, priority 2021, published 2024).

Legend:
Assay type in all cases: in vivo
Musca domestica = Musca domestica test; conditions: 100 ppm, adult houseflies, after 2 days
Procedure: Musca domestica Test Solvent: dimethyl sulfoxide An appropriate active ingredient formulation is produced by mixing 10 mg of active ingredient with 0.5 ml of dimethyl sulfoxide and diluting the concentrate with water to the desired concentration. Vessels containing a sponge treated with sugar solution and the desired concentration of active compound formulation are populated with 10 adult houseflies (Musca domestica). After 2 days, the kill rate in % is determined relative to the untreated control. 100% means that all of the flies have been killed; 0% means that none of the flies have been killed.

Lucilia cuprina = Lucilia cuprina test; conditions: 100 ppm, L1 larvae, after 2 days
Procedure: Lucilia cuprina Test Solvent: dimethyl sulfoxide An appropriate active ingredient formulation is produced by mixing 10 mg of active ingredient with 0.5 ml of dimethyl sulfoxide and diluting the concentrate with water to the desired concentration. About 20 L1 larvae of the Australian sheep blowfly (Lucilia cuprina) are transferred into a test vessel containing minced horsemeat and the active ingredient formulation of the desired concentration. After 2 days, the kill rate in % is determined relative to the untreated control. 100% means that all the larvae have been killed; 0% means that no larvae have been killed.

Spodoptera frugiperda = Spodoptera frugiperda spray test (SPODFR), comparative; conditions: 168 h, cotton leaves, after 7 days, read-out: % Efficacy
Source text: Spodoptera frugtiperda—Spray Test (SPODFR) Solvent: 14 parts by weight of dimethylformamide Emulsifier: alkylaryl polyglycol ether An appropriate active ingredient formulation is produced by dissolving 1 part by weight of active ingredient with the stated parts by weight of solvent and making the solution up to the desired concentration with water containing an emulsifier concentration of 1000 ppm. Further test concentrations are produced by diluting the formulation with emulsifier-containing water. If the addition of ammonium salts or/and penetrants is required, these are each added in a concentration of 1000 ppm to the formulation solution. Cotton leaves (Gossypium hirsutum) are sprayed with an active ingredient formulation of the desired concentration and populated with caterpillars of the armyworm (Spodoptera frugiperda). After 7 days, the kill in % is determined. 100% means that all caterpillars have been killed; 0% means that none of the caterpillars have been killed.

CCS(=O)(=O)c1ccc(-n2ncn(-c3ccc(Cl)cc3)c2=O)nc1-c1nc2cc(C(F)(F)C(F)(F)F)cnc2n1C [Example I-23]
100%: efficacy (kill rate) (Musca domestica) | efficacy (kill rate) (Lucilia cuprina) | Emax at 0.8 ppm (Spodoptera frugiperda)
